Experimental data reported in PubChem BioAssay AID280 (DTP/NCI, 2004).
“And” between values parts separate entries of the source, which are not always exact repeats. Identical values can stand only once. Toxic doses and inconclusive results are not listed.

System: nude mice, LOX melanoma ip, survival T/C
Assay: NCI In Vivo Anticancer Drug Screen. Data for tumor model Human Amelanotic Melanoma (LOX) (intraperitoneal) in NU/NU BALB/C (nude) mice
Conditions: endpoint: median survival time, higher = longer survival
Method: The antitumor activity of compounds was measured in mice bearing transplantable tumors. Survival or tumor size were measured and the results are expressed as the measurement made in the treated group (T) divided by the measurement made in the vehicle treated control group (C). The tumor model used in this assay is Human Amelanotic Melanoma (LOX) (intraperitoneal) in NU/NU BALB/C (nude) mice

[1] = dose: 50.0 mg/kg/injection, schedule: Q04DX003 (ip), vehicle: saline with Tween-80
[2] = dose: 100.0 mg/kg/injection, schedule: Q04DX003 (ip), vehicle: saline with Tween-80
[3] = dose: 50.0 mg/kg/injection, schedule: Q04DX003 (ip), vehicle: Klucel (hydroxypropylcellulose) (HPC)
[4] = dose: 200.0 mg/kg/injection, schedule: Q04DX003 (ip), vehicle: saline with Tween-80
[5] = dose: 12.5 mg/kg/injection, schedule: Q04DX003 (ip), vehicle: Klucel (hydroxypropylcellulose) (HPC)

In the case of `Clc1cccc(Cl)c1C(Nc1nncs1)Nc1nncs1`, the T/C [1] is reported as 106 % of control and the T/C [2] is reported as 106 % of control.
`CCOC(=O)Nc1cc(NC(C)/C(=N/O)c2ccccc2)c([N+](=O)[O-])c(N)n1` (configuration not stated) was tested, and the T/C [3] was 97 % of control, the T/C (dose: 51.84 mg/kg/injection, schedule: Q04DX003 (ip), vehicle: Klucel (hydroxypropylcellulose) (HPC)) was 109 % of control and the T/C (dose: 86.4 mg/kg/injection, schedule: Q04DX003 (ip), vehicle: Klucel (hydroxypropylcellulose) (HPC)) was 104 % of control. For the same compound, the T/C (dose: 144.0 mg/kg/injection, schedule: Q04DX003 (ip), vehicle: Klucel (hydroxypropylcellulose) (HPC)) was 89 % of control and the T/C (dose: 240.0 mg/kg/injection, schedule: Q04DX003 (ip), vehicle: Klucel (hydroxypropylcellulose) (HPC)) was 101 % of control.
In the case of `O=c1[nH]cnc2c1nnn2C1OC(CO)C(O)C1O` (configuration not stated), the T/C (dose: 180.0 mg/kg/injection, schedule: Q04DX003 (ip), vehicle: suspension in saline) is reported as 123 % of control and the T/C (dose: 833.0 mg/kg/injection, schedule: Q04DX003 (ip), vehicle: suspension in saline) is reported as 153 % of control.
In the case of `COc1ccc(O)cc1`, the T/C [2] is reported as 124 % of control and the T/C [4] is reported as 102 % of control.
In the case of `COc1cc2c(c3c1c(=O)c1ccccc1n3C)C=CC(C)(C)O2`, the T/C [5] is reported as 104 % of control, the T/C (dose: 25.0 mg/kg/injection, schedule: Q04DX003 (ip), vehicle: Klucel (hydroxypropylcellulose) (HPC)) is reported as 107 % of control and 97 % of control and the T/C [3] is reported as 107 % of control. The T/C (dose: 100.0 mg/kg/injection, schedule: Q04DX003 (ip), vehicle: Klucel (hydroxypropylcellulose) (HPC)) was 87 % of control.
In the case of `CC(=O)O[C@H]1C(=O)[C@@]2(C)[C@H]([C@H](OC(=O)c3ccccc3)[C@]3(O)C[C@H](OC(=O)[C@H](O)[C@@H](NC(=O)c4ccccc4)c4ccccc4)C(C)=C1C3(C)C)[C@]1(OC(C)=O)CO[C@@H]1C[C@@H]2O`, the T/C (dose: 1.88 mg/kg/injection, schedule: Q01DX009 (ip), vehicle: Klucel (hydroxypropylcellulose) (HPC)) is reported as 172 % of control, the T/C (dose: 3.75 mg/kg/injection, schedule: Q01DX009 (ip), vehicle: Klucel (hydroxypropylcellulose) (HPC)) is reported as 158 % of control and 173 % of control and the T/C (dose: 7.5 mg/kg/injection, schedule: Q01DX009 (ip), vehicle: Klucel (hydroxypropylcellulose) (HPC)) is reported as 170 % of control. The T/C (dose: 15.0 mg/kg/injection, schedule: Q01DX009 (ip), vehicle: Klucel (hydroxypropylcellulose) (HPC)) was 105 % of control and 93 % of control.
`C=Cc1cc(OC)c2c(c1)c(=O)oc1c2cc(OC)c2c(O)ccc(C3OC(C)C(O)C(C)(O)C3O)c21` (configuration not stated) was tested, and the T/C (dose: 600.0 mg/kg/injection, schedule: Q04DX003 (ip), vehicle: DMSO) was 86 % of control.
`O=C([O][Bi]([c]1ccccc1)[c]1ccccc1)c1ccccc1` was tested, and the T/C [5] was 98 % of control, the T/C [3] was 211 % of control and the T/C (dose: 200.0 mg/kg/injection, schedule: Q04DX003 (ip), vehicle: Klucel (hydroxypropylcellulose) (HPC)) was 103 % of control.
For `N[C@@H](Cc1ccc(N(CCCl)CCCl)cc1)C(=O)O`, the T/C (dose: 1.0 mg/kg/injection, schedule: Q01DX005 (ip), vehicle: water) was 155 % of control, the T/C (dose: 1.0 mg/kg/injection, schedule: Q01DX015 (ip), vehicle: water) was 166 % of control and the T/C (dose: 2.0 mg/kg/injection, schedule: Q01DX005 (ip), vehicle: water) was 258 % of control. For the same compound, the T/C (dose: 2.0 mg/kg/injection, schedule: Q01DX015 (ip), vehicle: water) was 218 % of control, the T/C (dose: 2.5 mg/kg/injection, schedule: Q01DX001 (ip), vehicle: water) was 171 % of control and the T/C (dose: 2.5 mg/kg/injection, schedule: Q04DX003 (ip), vehicle: water) was 162 % of control. The T/C (dose: 4.0 mg/kg/injection, schedule: Q01DX005 (ip), vehicle: water) was 344 % of control, the T/C (dose: 4.0 mg/kg/injection, schedule: Q01DX015 (ip), vehicle: water) was 344 % of control and the T/C (dose: 5.0 mg/kg/injection, schedule: Q01DX001 (ip), vehicle: water) was 188 % of control. For the same compound, the T/C (dose: 5.0 mg/kg/injection, schedule: Q04DX003 (ip), vehicle: water) was 241 % of control, the T/C (dose: 6.0 mg/kg/injection, schedule: Q04DX003 (ip), vehicle: saline) was 111 % of control and 203 % of control and the T/C (dose: 8.0 mg/kg/injection, schedule: Q01DX005 (ip), vehicle: water) was 344 % of control. The T/C (dose: 9.0 mg/kg/injection, schedule: Q04DX003 (ip), vehicle: saline) was 122 % of control and 203 % of control, the T/C (dose: 10.0 mg/kg/injection, schedule: Q01DX001 (ip), vehicle: water) was 344 % of control and the T/C (dose: 10.0 mg/kg/injection, schedule: Q04DX003 (ip), vehicle: water) was 344 % of control. The T/C (dose: 20.0 mg/kg/injection, schedule: Q01DX001 (ip), vehicle: water) was 344 % of control and the T/C (dose: 20.0 mg/kg/injection, schedule: Q04DX003 (ip), vehicle: water) was 97 % of control.
`Cc1cccc(OCC(O)CN2CC2)c1` (configuration not stated) was tested, and the T/C (dose: 25.0 mg/kg/injection, schedule: Q04DX003 (ip), vehicle: saline with Tween-80) was 104 % of control, the T/C [1] was 122 % of control and 99 % of control and the T/C [2] was 121 % of control. For the same compound, the T/C [4] was 122 % of control.
For `CCOC(=O)Nc1cc2c(c(N)n1)N=C(c1ccc3ccccc3c1)CN2`, the T/C (dose: 14.4 mg/kg/injection, schedule: Q04DX003 (ip), vehicle: saline with Tween-80) was 100 % of control, the T/C (dose: 24.0 mg/kg/injection, schedule: Q04DX003 (ip), vehicle: saline with Tween-80) was 123 % of control and the T/C (dose: 40.0 mg/kg/injection, schedule: Q04DX003 (ip), vehicle: saline with Tween-80) was 103 % of control and 112 % of control. For the same compound, the T/C (dose: 66.66 mg/kg/injection, schedule: Q04DX003 (ip), vehicle: saline with Tween-80) was 109 % of control, the T/C (dose: 67.0 mg/kg/injection, schedule: Q04DX003 (ip), vehicle: saline with Tween-80) was 111 % of control and the T/C (dose: 111.0 mg/kg/injection, schedule: Q04DX003 (ip), vehicle: saline with Tween-80) was 112 % of control. The T/C (dose: 185.0 mg/kg/injection, schedule: Q04DX003 (ip), vehicle: saline with Tween-80) was 122 % of control.
For `Cc1noc2nc(-c3ccccc3)cc(N3CCN(C)CC3)c12`, the T/C (dose: 25.0 mg/kg/injection, schedule: Q04DX003 (ip), vehicle: other) was 97 % of control, the T/C (dose: 54.0 mg/kg/injection, schedule: Q04DX003 (ip), vehicle: other) was 97 % of control and the T/C (dose: 100.0 mg/kg/injection, schedule: Q04DX003 (ip), vehicle: other) was 97 % of control. The T/C (dose: 200.0 mg/kg/injection, schedule: Q04DX003 (ip), vehicle: other) was 93 % of control and the T/C (dose: 400.0 mg/kg/injection, schedule: Q04DX003 (ip), vehicle: other) was 98 % of control.
In the case of `Nc1nc2n[nH]nc2c(=O)[nH]1`, the T/C (dose: 37.5 mg/kg/injection, schedule: Q04DX003 (ip), vehicle: suspension in saline) is reported as 164 % of control, the T/C (dose: 75.0 mg/kg/injection, schedule: Q04DX003 (ip), vehicle: suspension in saline) is reported as 177 % of control and the T/C (dose: 150.0 mg/kg/injection, schedule: Q04DX003 (ip), vehicle: suspension in saline) is reported as 217 % of control. For the same compound, the T/C (dose: 300.0 mg/kg/injection, schedule: Q04DX003 (ip), vehicle: suspension in saline) was 251 % of control.
`CCCCCC[Se][Se]CCCCCC` was tested, and the T/C (dose: 37.5 mg/kg/injection, schedule: Q04DX003 (ip), vehicle: Klucel (hydroxypropylcellulose) (HPC)) was 98 % of control, the T/C (dose: 75.0 mg/kg/injection, schedule: Q04DX003 (ip), vehicle: Klucel (hydroxypropylcellulose) (HPC)) was 96 % of control and the T/C (dose: 150.0 mg/kg/injection, schedule: Q04DX003 (ip), vehicle: Klucel (hydroxypropylcellulose) (HPC)) was 93 % of control. For the same compound, the T/C (dose: 300.0 mg/kg/injection, schedule: Q04DX003 (ip), vehicle: Klucel (hydroxypropylcellulose) (HPC)) was 105 % of control.
With `COc1ccc(/C=C/C(=O)c2ccccc(=O)c2O)c(OC)c1OC` the T/C (dose: 6.85 mg/kg/injection, schedule: Q04DX003 (ip), vehicle: Klucel (hydroxypropylcellulose) (HPC)) was 100 % of control, the T/C (dose: 13.7 mg/kg/injection, schedule: Q04DX003 (ip), vehicle: Klucel (hydroxypropylcellulose) (HPC)) was 100 % of control and the T/C (dose: 27.5 mg/kg/injection, schedule: Q04DX003 (ip), vehicle: Klucel (hydroxypropylcellulose) (HPC)) was 110 % of control. For the same compound, the T/C (dose: 55.0 mg/kg/injection, schedule: Q04DX003 (ip), vehicle: Klucel (hydroxypropylcellulose) (HPC)) was 104 % of control and the T/C (dose: 110.0 mg/kg/injection, schedule: Q04DX003 (ip), vehicle: Klucel (hydroxypropylcellulose) (HPC)) was 110 % of control.
In the case of `COc1cc(NS(C)(=O)=O)ccc1Nc1c2ccccc2nc2ccccc12`, the T/C (dose: 2.5 mg/kg/injection, schedule: Q04DX003 (ip), vehicle: other) is reported as 117 % of control and the T/C (dose: 5.0 mg/kg/injection, schedule: Q04DX003 (ip), vehicle: other) is reported as 122 % of control.
With `CNC(=O)N(C)N=NCCCl` the T/C [2] was 201 % of control, the T/C [4] was 309 % of control and the T/C (dose: 400.0 mg/kg/injection, schedule: Q04DX003 (ip), vehicle: saline with Tween-80) was 309 % of control. The T/C (dose: 800.0 mg/kg/injection, schedule: Q04DX003 (ip), vehicle: saline with Tween-80) was 309 % of control.
For `CN(C)CCCN=c1c2ccccc2n(C)c2[nH]c(=O)n(C)c(=O)c12`, the T/C (dose: 12.5 mg/kg/injection, schedule: Q04DX003 (ip), vehicle: saline) was 112 % of control and the T/C (dose: 50.0 mg/kg/injection, schedule: Q04DX003 (ip), vehicle: saline) was 107 % of control.
